{"source": "ChEMBL document CHEMBL1201862", "about": "“PubChem BioAssay data set” (2004)", "assay_in_all_cases": "NCI anticancer screen, dose series, 48 h", "key": {"786-0": {"tested_on": "786-0"}, "A498": {"tested_on": "A498"}, "A549": {"tested_on": "A549"}, "ACHN": {"tested_on": "ACHN"}, "BT-549": {"tested_on": "BT-549"}, "CCRF-CEM": {"tested_on": "CCRF-CEM"}, "COLO 205": {"tested_on": "COLO 205"}, "DU-145": {"tested_on": "DU-145"}, "EKVX": {"tested_on": "EKVX"}, "HCC 2998": {"tested_on": "HCC 2998"}, "HCT-116": {"tested_on": "HCT-116"}, "HCT-15": {"tested_on": "HCT-15"}, "HL-60": {"tested_on": "HL-60"}, "HOP-62": {"tested_on": "HOP-62"}, "HT-29": {"tested_on": "HT-29"}, "Hs-578T": {"tested_on": "Hs-578T"}, "IGROV-1": {"tested_on": "IGROV-1"}, "K562": {"tested_on": "K562"}, "KM12": {"tested_on": "KM12"}, "LOX IMVI": {"tested_on": "LOX IMVI"}, "M14": {"tested_on": "M14"}, "MCF7": {"tested_on": "MCF7"}, "MDA-MB-231": {"tested_on": "MDA-MB-231"}, "MDA-MB-435": {"tested_on": "MDA-MB-435"}, "MDA-N": {"tested_on": "MDA-N"}, "MOLT-4": {"tested_on": "MOLT-4"}, "Malme-3M": {"tested_on": "Malme-3M"}, "NCI-H226": {"tested_on": "NCI-H226"}, "NCI-H23": {"tested_on": "NCI-H23"}, "NCI-H460": {"tested_on": "NCI-H460"}, "NCI-H522": {"tested_on": "NCI-H522"}, "NCI/ADR-RES": {"tested_on": "NCI/ADR-RES"}, "OVCAR-3": {"tested_on": "OVCAR-3"}, "OVCAR-4": {"tested_on": "OVCAR-4"}, "OVCAR-5": {"tested_on": "OVCAR-5"}, "OVCAR-8": {"tested_on": "OVCAR-8"}, "PC-3": {"tested_on": "PC-3"}, "RPMI-8226": {"tested_on": "RPMI-8226"}, "RXF 393": {"tested_on": "RXF 393"}, "SF-268": {"tested_on": "SF-268"}, "SF-295": {"tested_on": "SF-295"}, "SF-539": {"tested_on": "SF-539"}, "SK-MEL-28": {"tested_on": "SK-MEL-28"}, "SK-MEL-2": {"tested_on": "SK-MEL-2"}, "SK-MEL-5": {"tested_on": "SK-MEL-5"}, "SK-OV-3": {"tested_on": "SK-OV-3"}, "SN12C": {"tested_on": "SN12C"}, "SNB-19": {"tested_on": "SNB-19"}, "SNB-75": {"tested_on": "SNB-75"}, "SR": {"tested_on": "SR"}, "SW-620": {"tested_on": "SW-620"}, "T47D": {"tested_on": "T47D"}, "TK-10": {"tested_on": "TK-10"}, "U-251": {"tested_on": "U-251"}, "UACC-257": {"tested_on": "UACC-257"}, "UACC-62": {"tested_on": "UACC-62"}, "UO-31": {"tested_on": "UO-31"}}, "note": "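Values below derive from 48-hour exposures of cells grown in 96-well plates, with endpoints linearly interpolated between the two concentrations bracketing the appropriate inhibition level. GI50 marks 50% less growth.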 The source made the active and inactive calls. Rule as the data show it: active = GI50 up to about 1.1 µM and inactive = higher.", "data": [{"smiles": "O=C(O)C(Cc1ccc2c(c1)CCC2)(Cc1ccc2c(c1)CCC2)C(=O)O", "values": [{"measurement": "GI50", "setting": "786-0", "result": "> 100 µM (inactive)"}, {"measurement": "GI50", "setting": "A498", "result": "> 100 µM (inactive)"}, {"measurement": "GI50", "setting": "A549", "result": "> 100 µM (inactive)"}, {"measurement": "GI50", "setting": "ACHN", "result": "> 100 µM (inactive)"}, {"measurement": "GI50", "setting": "BT-549", "result": "> 100 µM (inactive)"}, {"measurement": "GI50", "setting": "CCRF-CEM", "result": "> 100 µM (inactive)"}, {"measurement": "GI50", "setting": "COLO 205", "result": "> 100 µM (inactive)"}, {"measurement": "GI50", "setting": "DU-145", "result": "> 100 µM (inactive)"}, {"measurement": "GI50", "setting": "EKVX", "result": "> 100 µM (inactive)"}, {"measurement": "GI50", "setting": "HCC 2998", "result": "> 100 µM (inactive)"}, {"measurement": "GI50", "setting": "HCT-116", "result": "> 100 µM (inactive)"}, {"measurement": "GI50", "setting": "HCT-15", "result": "> 100", "unit": "µM"}, {"measurement": "GI50", "setting": "HL-60", "result": "> 100 µM (inactive)"}, {"measurement": "GI50", "setting": "HOP-62", "result": "> 100 µM (inactive)"}, {"measurement": "GI50", "setting": "HT-29", "result": "> 100 µM (inactive)"}, {"measurement": "GI50", "setting": "Hs-578T", "result": "> 100 µM (inactive)"}, {"measurement": "GI50", "setting": "IGROV-1", "result": "> 100 µM (inactive)"}, {"measurement": "GI50", "setting": "K562", "result": "> 100 µM (inactive)"}, {"measurement": "GI50", "setting": "KM12", "result": "> 100 µM (inactive)"}, {"measurement": "GI50", "setting": "LOX IMVI", "result": "> 100 µM (inactive)"}, {"measurement": "GI50", "setting": "M14", "result": "> 100 µM (inactive)"}, {"measurement": "GI50", "setting": "MCF7", "result": "> 100 µM (inactive)"}, {"measurement": "GI50", "setting": "MDA-MB-231", "result": "29.2 µM (inactive)"}, {"measurement": "GI50", "setting": "MDA-MB-435", "result": "> 100 µM (inactive)"}, {"measurement": "GI50", "setting": "MDA-N", "result": "> 100 µM (inactive)"}, {"measurement": "GI50", "setting": "MOLT-4", "result": "> 100 µM (inactive)"}, {"measurement": "GI50", "setting": "Malme-3M", "result": "> 100 µM (inactive)"}, {"measurement": "GI50", "setting": "NCI-H226", "result": "> 100 µM (inactive)"}, {"measurement": "GI50", "setting": "NCI-H23", "result": "> 100 µM (inactive)"}, {"measurement": "GI50", "setting": "NCI-H460", "result": "> 100 µM (inactive)"}, {"measurement": "GI50", "setting": "NCI-H522", "result": "> 100 µM (inactive)"}, {"measurement": "GI50", "setting": "NCI/ADR-RES", "result": "> 100 µM (inactive)"}, {"measurement": "GI50", "setting": "OVCAR-3", "result": "> 100 µM (inactive)"}, {"measurement": "GI50", "setting": "OVCAR-4", "result": "> 100 µM (inactive)"}, {"measurement": "GI50", "setting": "OVCAR-5", "result": "> 100 µM (inactive)"}, {"measurement": "GI50", "setting": "OVCAR-8", "result": "> 100 µM (inactive)"}, {"measurement": "GI50", "setting": "PC-3", "result": "> 100 µM (inactive)"}, {"measurement": "GI50", "setting": "RPMI-8226", "result": "> 100 µM (inactive)"}, {"measurement": "GI50", "setting": "RXF 393", "result": "> 100 µM (inactive)"}, {"measurement": "GI50", "setting": "SF-268", "result": "> 100 µM (inactive)"}, {"measurement": "GI50", "setting": "SF-295", "result": "> 100 µM (inactive)"}, {"measurement": "GI50", "setting": "SF-539", "result": "> 100 µM (inactive)"}, {"measurement": "GI50", "setting": "SK-MEL-28", "result": "> 100 µM (inactive)"}, {"measurement": "GI50", "setting": "SK-MEL-2", "result": "> 100 µM (inactive)"}, {"measurement": "GI50", "setting": "SK-MEL-5", "result": "> 100 µM (inactive)"}, {"measurement": "GI50", "setting": "SK-OV-3", "result": "> 100 µM (inactive)"}, {"measurement": "GI50", "setting": "SN12C", "result": "> 100 µM (inactive)"}, {"measurement": "GI50", "setting": "SNB-19", "result": "> 100 µM (inactive)"}, {"measurement": "GI50", "setting": "SNB-75", "result": "> 100 µM (inactive)"}, {"measurement": "GI50", "setting": "SR", "result": "> 100 µM (inactive)"}, {"measurement": "GI50", "setting": "SW-620", "result": "> 100 µM (inactive)"}, {"measurement": "GI50", "setting": "T47D", "result": "> 100 µM (inactive)"}, {"measurement": "GI50", "setting": "TK-10", "result": "> 100 µM (inactive)"}, {"measurement": "GI50", "setting": "U-251", "result": "> 100 µM (inactive)"}, {"measurement": "GI50", "setting": "UACC-257", "result": "> 100 µM (inactive)"}, {"measurement": "GI50", "setting": "UACC-62", "result": "> 100 µM (inactive)"}, {"measurement": "GI50", "setting": "UO-31", "result": "> 100 µM (inactive)"}]}]}
